Consider 19 molecules from US12522594B2, “2-heteroaryl-3-oxo-2,3-dihydropyridazine-4-carboxamides for the treatment of cancer” (Deutsches Krebsforschungszentrum, priority 2017, dated 2026).

As a reminder, the IC50 is the midpoint of a concentration-inhibition curve.

SMILES strings stand for the structures.

Test [1] concerns the target T1, AHR (Homo sapiens, UniProt P35869).
T1 sequence (P35869 11-848): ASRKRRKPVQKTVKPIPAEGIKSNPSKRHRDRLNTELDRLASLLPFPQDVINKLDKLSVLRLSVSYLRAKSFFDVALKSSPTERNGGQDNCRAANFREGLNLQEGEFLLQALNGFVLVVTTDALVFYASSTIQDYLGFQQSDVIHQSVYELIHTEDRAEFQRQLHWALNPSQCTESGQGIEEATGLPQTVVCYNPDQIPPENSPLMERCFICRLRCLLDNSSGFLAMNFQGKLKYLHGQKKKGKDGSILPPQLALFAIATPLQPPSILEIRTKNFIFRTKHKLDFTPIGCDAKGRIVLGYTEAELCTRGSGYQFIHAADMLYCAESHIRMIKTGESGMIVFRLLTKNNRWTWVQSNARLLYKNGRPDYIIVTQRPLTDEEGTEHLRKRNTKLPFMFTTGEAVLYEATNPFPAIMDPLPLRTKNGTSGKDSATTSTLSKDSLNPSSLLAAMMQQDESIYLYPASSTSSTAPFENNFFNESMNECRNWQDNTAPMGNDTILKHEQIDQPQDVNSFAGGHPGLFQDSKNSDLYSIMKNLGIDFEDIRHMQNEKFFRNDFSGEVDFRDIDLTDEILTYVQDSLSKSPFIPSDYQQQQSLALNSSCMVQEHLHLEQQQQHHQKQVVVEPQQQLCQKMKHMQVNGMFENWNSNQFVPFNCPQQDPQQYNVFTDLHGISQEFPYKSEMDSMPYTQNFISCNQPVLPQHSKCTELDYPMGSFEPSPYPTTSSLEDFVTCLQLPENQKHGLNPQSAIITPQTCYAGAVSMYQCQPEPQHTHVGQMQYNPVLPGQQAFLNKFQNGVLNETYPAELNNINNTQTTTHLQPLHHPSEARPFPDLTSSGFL
The experiment in a line: In vitro assay 1: antagonism in human cell line (transactivation assay, U87 cells prestimulated with kynurenic acid, DRE firefly luciferase reporter). Type of test: cell-based. As to conditions: 150 uM kynurenic acid, 20 hours, read-out: Assay 1: AHR-luc Hum Antagonism IC50. Details: host or cells: U87 glioblastoma cells, stably transfected with DRE firefly luciferase and renilla reporter constructs. In a few lines:
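Antagonism measured after kynurenic acid prestimulation in U87 cells that express AHR endogenously and stably harbor a firefly luciferase gene under DRE control plus a constitutive renilla construct. Positive and negative controls served for normalization.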
(In a reporter assay the amount or activity of a reporter protein is the signal.)

Test [2] deals with T1, AHR. As to the kind of experiment: In vitro assay 2: agonism in human cell line (transactivation assay, U87 cells, DRE firefly luciferase reporter). Type of test: cell-based. The arrangement: host or cells: U87 glioblastoma cells, stably transfected with DRE firefly luciferase and renilla reporter constructs. As to conditions: no kynurenic acid, 20 hours, read-out: Assay 2: AHR-luc Hum Agonism IC50. In a few lines: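 Agonist readout: DRE firefly luciferase, with constitutive renilla reporter, in stably transfected U87 cells expressing AHR endogenously. Normalization used positive control (300 uM kynurenic acid) and negative control.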

For `O=C(NC[C@H](O)C(F)(F)F)c1cc(-c2ccc(C(F)(F)F)cc2)nn(-c2cn[nH]c2)c1=O` [Example 216, 3-Oxo-2-(1H-pyrazol-4-yl)-N-[(2S)-3,3,3-trifluoro-2-hydroxypropyl]-6-[4-(trifluoromethyl)phenyl]-2,3-dihydropyridazine-4-carboxamide], the IC50 in test [1] is 0.00238 µM; in test [2] it was greater than 20 µM.

Consider `C[C@@H](CO)NC(=O)c1cc(-c2ccc(CF)cc2)nn(-c2cnn(C)c2)c1=O` [Example 287, 6-[4-(Fluoromethyl)phenyl]-N-[(2S)-1-hydroxypropan-2-yl]-2-(1-methyl-1H-pyrazol-4-yl)-3-oxo-2,3-dihydropyridazine-4-carboxamide], for which the values for the IC50 in test [1] and in test [2] were 0.721 µM and greater than 20 µM, respectively.

On to `CC(C)(O)CNC(=O)c1cc(-c2ccc(CF)cc2)nn(-c2cccnc2)c1=O` [Example 286, 6-[4-(Fluoromethyl)phenyl]-N-(2-hydroxy-2-methylpropyl)-3-oxo-2-(pyridin-3-yl)-2,3-dihydropyridazine-4-carboxamide], for which the half-maximal inhibitory concentration (IC50) in test [1] was 0.672 µM; in test [2], greater than 20 µM.

For `Cc1cncc(-n2nc(-c3ccc(Cl)cc3)cc(C(=O)N[C@@H](C)CO)c2=O)c1` [Example 304, 6-(4-Chlorophenyl)-N-[(2S)-1-hydroxypropan-2-yl]-2-(5-methylpyridin-3-yl)-3-oxo-2,3-dihydropyridazine-4-carboxamide], the IC50 in test [1] was 0.349 µM; in test [2], greater than 20 µM.

In the case of `C[C@H](NC(=O)c1cc(-c2ccc(C(F)(F)F)cc2)nn(-c2cnn(C(F)F)c2)c1=O)C(C)(C)O` [Example 228, 2-[1-(Difluoromethyl)-1H-pyrazol-4-yl]-N-[(2S)-3-hydroxy-3-methylbutan-2-yl]-3-oxo-6-[4-(trifluoromethyl)phenyl]-2,3-dihydropyridazine-4-carboxamide], the IC50 is 0.0133 µM in test [1] and greater than 20 µM in test [2].

Take `O=C(N[C@H]1COC[C@@H]1O)c1cc(-c2ccc(Cl)cc2)nn(-c2cncc(F)c2)c1=O` (relative stereo) [Example 154, 6-(4-Chlorophenyl)-2-(5-fluoropyridin-3-yl)-N-[(trans)-4-hydroxytetrahydrofuran-3-yl]-3-oxo-2,3-dihydropyridazine-4-carboxamide]: the values for the IC50 in test [1] and in test [2] were 0.0368 µM and greater than 20 µM, respectively.

In the case of `O=C(N[C@H]1CCCC[C@H]1O)c1cc(-c2ccc(Cl)cc2)nn(-c2cncc(F)c2)c1=O` [Example 124, 6-(4-Chlorophenyl)-2-(5-fluoropyridin-3-yl)-N-[(1S,2R)-2-hydroxycyclohexyl]-3-oxo-2,3-dihydropyridazine-4-carboxamide], the IC50 in test [1] is 0.00364 µM; in test [2], greater than 20 µM.

As for `O=C(N[C@H](CO)C1CC1)c1cc(-c2ccc(C(F)(F)F)nc2)nn(-c2cncc(F)c2)c1=O` [Example 339, N-[(1S)-1-Cyclopropyl-2-hydroxyethyl]-2-(5-fluoropyridin-3-yl)-3-oxo-6-[6-(trifluoromethyl)pyridin-3-yl]-2,3-dihydropyridazine-4-carboxamide], the IC50 is 0.0276 µM in test [1] and greater than 20 µM in test [2].

For the molecule `O=C(NCC1(O)CCC1)c1cc(-c2ccc(Cl)cc2)nn(-c2cnsc2)c1=O` [Example 200, 6-(4-Chlorophenyl)-N-[(1-hydroxycyclobutyl)methyl]-3-oxo-2-(1,2-thiazol-4-yl)-2,3-dihydropyridazine-4-carboxamide], the values for the IC50 in test [1] and in test [2] were 0.000734 µM and greater than 20 µM, respectively.

For the molecule `O=C(N[C@H](CO)C1CC1)c1cc(-c2ccc(Cl)cc2)nn(-c2cncc(F)c2)c1=O` [Example 259, 6-(4-Chlorophenyl)-N-[(1S)-1-cyclopropyl-2-hydroxyethyl]-2-(5-fluoropyridin-3-yl)-3-oxo-2,3-dihydropyridazine-4-carboxamide], the results for the IC50 in test [1] and in test [2] were 0.0281 µM and greater than 20 µM, respectively.

Consider `C[C@H](NC(=O)c1cc(-c2ccc(C(F)(F)F)nc2)nn(-c2cncc(F)c2)c1=O)C(C)(C)O` [Example 340, 2-(5-Fluoropyridin-3-yl)-N-[(2S)-3-hydroxy-3-methylbutan-2-yl]-3-oxo-6-[6-(trifluoromethyl)pyridin-3-yl]-2,3-dihydropyridazine-4-carboxamide], for which the results for the IC50 in test [1] and in test [2] were 0.0497 µM and greater than 20 µM, respectively.

In the case of `C[C@]1(O)CCC[C@H]1NC(=O)c1cc(-c2ccc(OC(F)(F)F)cc2)nn(-c2cccnc2)c1=O` (single isomer, unassigned) [Example 330, N-[(cis)-2-hydroxy-2-methylcyclopentyl]-3-oxo-2-(pyridin-3-yl)-6-[4-(trifluoromethoxy)phenyl]-2,3-dihydropyridazine-4-carboxamide], the IC50 is 0.0927 µM in test [1] and greater than 20 µM in test [2].

`C[C@H](CO)NC(=O)c1cc(-c2ccc(Cl)cc2)nn(-c2cncc(F)c2)c1=O` [Example 81, 6-(4-Chlorophenyl)-2-(5-fluoropyridin-3-yl)-N-[(2R)-1-hydroxypropan-2-yl]-3-oxo-2,3-dihydropyridazine-4-carboxamide]: the IC50 in test [1] is 0.106 µM; in test [2], greater than 20 µM.

Regarding `CC(NC(=O)c1cc(-c2ccc(Cl)cc2)nn(-c2cccnc2)c1=O)C(O)C(F)(F)F` (single isomer, unassigned) [Example 297, 6-(4-Chlorophenyl)-3-oxo-2-(pyridin-3-yl)-N-(4,4,4-trifluoro-3-hydroxybutan-2-yl)-2,3-dihydropyridazine-4-carboxamide], the results for the IC50 in test [1] and in test [2] were 0.00149 µM and greater than 20 µM, respectively.

`O=C(N[C@H](CO)C(F)(F)F)c1cc(-c2ccc(Cl)cc2)nn(-c2cncnc2)c1=O` [Example 271, 6-(4-Chlorophenyl)-3-oxo-2-(pyrimidin-5-yl)-N-[(2R)-1,1,1-trifluoro-3-hydroxypropan-2-yl]-2,3-dihydropyridazine-4-carboxamide]: the IC50 was 0.072 µM in test [1] and greater than 20 µM in test [2].

Take `O=C(N[C@@H]1COC[C@@H]1O)c1cc(-c2ccc(C(F)F)cc2)nn(-c2cccnc2)c1=O` (single isomer, unassigned) [Example 318, 6-[4-(Difluoromethyl)phenyl]-N-[(cis)-4-hydroxy-tetrahydrofuran-3-yl]-3-oxo-2-(pyridin-3-yl)-2,3-dihydropyridazine-4-carboxamide]: the concentration for half-maximal inhibition (IC50) was 0.032 µM in test [1] and greater than 20 µM in test [2].

Consider `C[C@@H](CO)NC(=O)c1cc(-c2ccc(Cl)cc2)nn(-c2cncnc2)c1=O` [Example 120, 6-(4-Chlorophenyl)-N-[(2S)-1-hydroxypropan-2-yl]-3-oxo-2-(pyrimidin-5-yl)-2,3-dihydropyridazine-4-carboxamide], for which the half-inhibitory concentration (IC50) in test [1] was 0.0679 µM; in test [2], greater than 20 µM.

Regarding `COC[C@@H](CO)NC(=O)c1cc(-c2ccc(Cl)cc2)nn(-c2cccnc2)c1=O` [Example 75, (−)-6-(4-Chlorophenyl)-N-[(2R)-1-hydroxy-3-methoxypropan-2-yl]-3-oxo-2-(pyridin-3-yl)-2,3-dihydropyridazine-4-carboxamide], the concentration for half-maximal inhibition (IC50) in test [1] was 0.0834 µM; in test [2] it was greater than 20 µM.

As for `C[C@H](NC(=O)c1cc(-c2ccc(C(F)(F)F)cc2)nn(-c2cnn(C)c2)c1=O)C(C)(C)O` [Example 206, N-[(2S)-3-Hydroxy-3-methylbutan-2-yl]-2-(1-methyl-1H-pyrazol-4-yl)-3-oxo-6-[4-(trifluoromethyl)phenyl]-2,3-dihydropyridazine-4-carboxamide], the IC50 was 0.00107 µM in test [1] and greater than 20 µM in test [2].
